Data published in patent US20220169629A1, “PESTICIDALLY ACTIVE DIAZINE-AMIDE COMPOUNDS” (SYNGENTA CROP PROTECTION AG, priority 2019, published 2022).

What was measured:
Assay type in all cases: in vivo
[1] = system: Diabrotica balteata (corn root worm); test: Example B1: Diabrotica balteata (corn root worm), sprayed maize sprouts, L2 larvae; settings: 96 h, application rate of 200 ppm, 4 days after infestation, L2 larvae on maize sprouts, read-out: control in at least one of the two categories (mortality or growth inhibition)
Method: Example B1: Diabrotica Balteata (Corn Root Worm)
Maize sprouts placed onto an agar layer in 24-well microtiter plates were treated with aqueous test solutions prepared from 10′000 ppm DMSO stock solutions by spraying. After drying, the plates were infested with L2 larvae (6 to 10 per well). The samples were assessed for mortality and growth inhibition in comparison to untreated samples 4 days after infestation.

[2] = system: Spodoptera littoralis (Egyptian cotton leaf worm); test: Example B7: Spodoptera littoralis (Egyptian cotton leaf worm), sprayed cotton leaf discs, L1 larvae; settings: foliar, 72 h, application rate of 200 ppm, 3 days after infestation, L1 larvae on cotton leaf discs, read-out: control in at least one of the three categories (mortality, anti-feeding or growth inhibition)
Method: Example B7: Spodoptera littoralis (Egyptian Cotton Leaf Worm)
Cotton leaf discs were placed onto agar in 24-well microtiter plates and sprayed with aqueous test solutions prepared from 10′000 ppm DMSO stock solutions. After drying the leaf discs were infested with five L1 larvae. The samples were assessed for mortality, anti-feeding effect, and growth inhibition in comparison to untreated samples 3 days after infestation. Control of Spodoptera littoralis by a test sample is given when at least one of the categories mortality, anti-feedant effect, and growth inhibition is higher than the untreated sample.

[3] = system: Plutella xylostella (diamond back moth); test: Example B5: Plutella xylostella (diamond back moth), artificial diet, 24-well, eggs; settings: 192 h, application rate of 200 ppm, 8 days after infestation, read-out: control in at least one of the two categories (mortality or growth inhibition)
Method: Example B5: Plutella xylostella (Diamond Back Moth)
24-well microtiter plates with artificial diet were treated with aqueous test solutions prepared from 10′000 ppm DMSO stock solutions by pipetting. After drying, Plutella eggs were pipetted through a plastic stencil onto a gel blotting paper and the plate was closed with it. The samples were assessed for mortality and growth inhibition in comparison to untreated samples 8 days after infestation.

[4] = system: Chilo suppressalis (striped rice stemborer); test: Example B4: Chilo suppressalis (striped rice stemborer), artificial diet, L2 larvae; settings: 144 h, application rate of 200 ppm, 6 days after infestation, L2 larvae on artificial diet, read-out: control in at least one of the three categories (mortality, anti-feeding or growth inhibition)
Method: Example B4: Chilo suppressalis (Striped rice stemborer)
24-well microtiter plates with artificial diet were treated with aqueous test solutions prepared from 10′000 ppm DMSO stock solutions by pipetting. After drying, the plates were infested with L2 larvae (6-8 per well). The samples were assessed for mortality, anti-feeding effect, and growth inhibition in comparison to untreated samples 6 days after infestation. Control of Chilo suppressalis by a test sample is given when at least one of the categories mortality, anti-feedant effect, and growth inhibition is higher than the untreated sample.

[5] = system: Plutella xylostella (diamondback moth); test: Example B10: Plutella xylostella (diamondback moth), 96-well artificial diet; settings: 216 h, application rate of 500 ppm, 9 days after infestation, eggs/L1 larvae
Method: Example B10: Plutella xylostella (Diamondback Moth)
96-well microtiter plates containing artificial diet were treated with aqueous test solutions, prepared from 10′000 ppm DMSO stock solutions, by a liquid handling robot. After drying, eggs (˜30 per well) were infested onto a netted lid which was suspended above the diet. The eggs hatch and L1 larvae move down to the diet. The samples were assessed for mortality 9 days after infestation.

CC(NC(=O)c1cc(Br)cc(C(F)(F)F)c1)c1nccnc1-c1ccc(OC(F)F)cn1 (stereo not shown) [Compound P11, 3-bromo-N-[1-[3-[5-(difluoromethoxy)-2-pyridyl]pyrazin-2-yl]ethyl]-5-(trifluoromethyl)benzamide]
≥ 80%: percent control (mortality or growth inhibition) at 200 ppm [1] | percent control (mortality, anti-feeding or growth inhibition) at 200 ppm [2] | percent control (mortality or growth inhibition) at 200 ppm [3] | control at 200 ppm [4]

CC(NC(=O)c1cc(Cl)cc(C(F)(F)F)c1)c1nccnc1-c1ccc(C#N)cn1 (stereo not shown) [Compound P7, 3-chloro-N-[1-[3-(5-cyano-2-pyridyl)pyrazin-2-yl]ethyl]-5-(trifluoromethyl)benzamide]
≥ 80%: percent control (mortality or growth inhibition) at 200 ppm [1] | percent control (mortality, anti-feeding or growth inhibition) at 200 ppm [2] | percent control (mortality or growth inhibition) at 200 ppm [3] | control at 200 ppm [4]

CC(NC(=O)c1cc(Br)cc(C(F)(F)F)c1)c1nccnc1-c1ccc(C#N)cn1 (stereo not shown) [Compound P10, 3-bromo-N-[1-[3-(5-cyano-2-pyridyl)pyrazin-2-yl]ethyl]-5-(trifluoromethyl)benzamide]
≥ 80%: percent control (mortality or growth inhibition) at 200 ppm [1] | percent control (mortality, anti-feeding or growth inhibition) at 200 ppm [2] | percent control (mortality or growth inhibition) at 200 ppm [3] | control at 200 ppm [4]

CC(NC(=O)c1cc(OC(F)F)cc(C(F)(F)F)c1)c1nccnc1-c1ccc(OC(F)F)cn1 (stereo not shown) [Compound P4, 3-(difluoromethoxy)-N-[1-[3-[5-(difluoromethoxy)-2-pyridyl]pyrazin-2-yl]ethyl]-5-(trifluoromethyl)benzamide]
≥ 80%: percent control (mortality or growth inhibition) at 200 ppm [1] | percent control (mortality, anti-feeding or growth inhibition) at 200 ppm [2] | percent control (mortality or growth inhibition) at 200 ppm [3] | control at 200 ppm [4]

CC(NC(=O)c1cc(OCC(F)F)cc(C(F)(F)F)c1)c1nccnc1-c1ccc(OCC(F)(F)F)cn1 (stereo not shown) [Compound P17, 3-(2,2-difluoroethoxy)-N-[1-[3-[5-(2,2,2-trifluoroethoxy)-2-pyridyl]pyrazin-2-yl]ethyl]-5-(trifluoromethyl)benzamide]
≥ 80%: mortality at 500 ppm [5] | percent control (mortality, anti-feeding or growth inhibition) at 200 ppm [2] | percent control (mortality or growth inhibition) at 200 ppm [3]

CC(NC(=O)c1cc(Cl)cc(C(F)(F)F)c1)c1nccnc1-c1ncc(OCC(F)F)cn1 (stereo not shown) [Compound P36, 3-chloro-N-[1-[3-[5-(2,2-difluoroethoxy)pyrimidin-2-yl]pyrazin-2-yl]ethyl]-5-(trifluoromethyl)benzamide]
≥ 80%: percent control (mortality, anti-feeding or growth inhibition) at 200 ppm [2] | percent control (mortality or growth inhibition) at 200 ppm [3]

CC(NC(=O)c1cc(OCC(F)F)cc(C(F)(F)F)c1)c1nccnc1-c1ccc(OC(F)F)cn1 (stereo not shown) [Compound P2, 3-(2,2-difluoroethoxy)-N-[1-[3-[5-(difluoromethoxy)-2-pyridyl]pyrazin-2-yl]ethyl]-5-(trifluoromethyl)benzamide]
≥ 80%: percent control (mortality, anti-feeding or growth inhibition) at 200 ppm [2] | percent control (mortality or growth inhibition) at 200 ppm [3] | control at 200 ppm [4]

CC(NC(=O)c1cc(C(F)(F)F)cc(C(F)(F)F)c1)c1nccnc1-c1ccc(C#N)cn1 (stereo not shown) [Compound P31, N-[1-[3-(5-cyano-2-pyridyl)pyrazin-2-yl]ethyl]-3,5-bis(trifluoromethyl)benzamide]
≥ 80%: mortality at 500 ppm [5] | percent control (mortality, anti-feeding or growth inhibition) at 200 ppm [2] | percent control (mortality or growth inhibition) at 200 ppm [3] | control at 200 ppm [4]

CC(NC(=O)c1cc(Cl)cc(C(F)(F)F)c1)c1nccnc1-c1ccc(OCC(F)F)cn1 (stereo not shown) [Compound P20, 3-chloro-N-[1-[3-[5-(2,2-difluoroethoxy)-2-pyridyl]pyrazin-2-yl]ethyl]-5-(trifluoromethyl)benzamide]
≥ 80%: mortality at 500 ppm [5] | percent control (mortality, anti-feeding or growth inhibition) at 200 ppm [2] | percent control (mortality or growth inhibition) at 200 ppm [3] | control at 200 ppm [4]

CC(NC(=O)c1cc(OC(F)F)cc(C(F)(F)F)c1)c1nccnc1-c1ccc(OCC(F)(F)F)cn1 (stereo not shown) [Compound P12, 3-(difluoromethoxy)-N-[1-[3-[5-(2,2,2-trifluoroethoxy)-2-pyridyl]pyrazin-2-yl]ethyl]-5-(trifluoromethyl)benzamide]
≥ 80%: mortality at 500 ppm [5] | percent control (mortality, anti-feeding or growth inhibition) at 200 ppm [2] | percent control (mortality or growth inhibition) at 200 ppm [3] | control at 200 ppm [4]

CC(NC(=O)c1cc(OCC(F)F)cc(C(F)(F)F)c1)c1nccnc1-c1ncc(OCC(F)F)cn1 (stereo not shown) [Compound P32, 3-(2,2-difluoroethoxy)-N-[1-[3-[5-(2,2-difluoroethoxy)pyrimidin-2-yl]pyrazin-2-yl]ethyl]-5-(trifluoromethyl)benzamide]
≥ 80%: percent control (mortality, anti-feeding or growth inhibition) at 200 ppm [2] | percent control (mortality or growth inhibition) at 200 ppm [3] | control at 200 ppm [4]

CC(NC(=O)c1cc(OCC(F)(F)F)cc(C(F)(F)F)c1)c1nccnc1-c1ccc(OCC(F)(F)F)cn1 (stereo not shown) [Compound P14, 3-(2,2,2-trifluoroethoxy)-N-[1-[3-[5-(2,2,2-trifluoroethoxy)-2-pyridyl]pyrazin-2-yl]ethyl]-5-(trifluoromethyl)benzamide]
≥ 80%: mortality at 500 ppm [5] | percent control (mortality or growth inhibition) at 200 ppm [3] | control at 200 ppm [4]

CC(NC(=O)c1cc(Br)cc(C(F)(F)F)c1)c1nccnc1-c1ccc(OCC(F)(F)F)cn1 (stereo not shown) [Compound P18, 3-bromo-N-[1-[3-[5-(2,2,2-trifluoroethoxy)-2-pyridyl]pyrazin-2-yl]ethyl]-5-(trifluoromethyl)benzamide]
≥ 80%: mortality at 500 ppm [5] | percent control (mortality, anti-feeding or growth inhibition) at 200 ppm [2] | percent control (mortality or growth inhibition) at 200 ppm [3] | control at 200 ppm [4]

CC(NC(=O)c1cc(Br)cc(C(F)(F)F)c1)c1nccnc1-c1ncc(OCC(F)(F)F)cn1 (stereo not shown) [Compound P9, 3-bromo-N-[1-[3-[5-(2,2,2-trifluoroethoxy)pyrimidin-2-yl]pyrazin-2-yl]ethyl]-5-(trifluoromethyl)benzamide]
≥ 80%: percent control (mortality or growth inhibition) at 200 ppm [1] | percent control (mortality, anti-feeding or growth inhibition) at 200 ppm [2] | percent control (mortality or growth inhibition) at 200 ppm [3] | control at 200 ppm [4]

CC(NC(=O)c1cc(Cl)cc(C(F)(F)F)c1)c1nccnc1-c1ccc(OC(F)F)cn1 (stereo not shown) [Compound P8, 3-chloro-N-[1-[3-[5-(difluoromethoxy)-2-pyridyl]pyrazin-2-yl]ethyl]-5-(trifluoromethyl)benzamide]
≥ 80%: percent control (mortality or growth inhibition) at 200 ppm [1] | percent control (mortality, anti-feeding or growth inhibition) at 200 ppm [2] | percent control (mortality or growth inhibition) at 200 ppm [3] | control at 200 ppm [4]

CC(NC(=O)c1cc(OCC(F)(F)F)cc(C(F)(F)F)c1)c1nccnc1-c1ncc(OCC(F)F)cn1 (stereo not shown) [Compound P38, N-[1-[3-[5-(2,2-difluoroethoxy)pyrimidin-2-yl]pyrazin-2-yl]ethyl]-3-(2,2,2-trifluoroethoxy)-5-(trifluoromethyl)benzamide]
≥ 80%: percent control (mortality, anti-feeding or growth inhibition) at 200 ppm [2] | percent control (mortality or growth inhibition) at 200 ppm [3] | control at 200 ppm [4]

CC(NC(=O)c1cc(OCC(F)(F)F)cc(C(F)(F)F)c1)c1nccnc1-c1ccc(OC(F)F)cn1 (stereo not shown) [Compound P6, N-[1-[3-[5-(difluoromethoxy)-2-pyridyl]pyrazin-2-yl]ethyl]-3-(2,2,2-trifluoroethoxy)-5-(trifluoromethyl)benzamide]
≥ 80%: percent control (mortality or growth inhibition) at 200 ppm [1] | percent control (mortality, anti-feeding or growth inhibition) at 200 ppm [2] | percent control (mortality or growth inhibition) at 200 ppm [3] | control at 200 ppm [4]
